The text below walks through data of US11185527B2, “Methods and compositions relating to steroid hormone receptor-dependent cancers” (Wayne State University, priority 2017, dated 2021).

In data set [1] the test system is AR recruitment to chromatin in LNCaP cells. The data set is described as follows: Chromatin immunoprecipitation (ChIP) with AR antibody in LNCaP cells. The data set is classed as cell-based. The note with it: R1881 10 nM + KCI807 20 uM, 2h. Here is the method:
FIGS. 2E and 2F are graphs showing results of tests in which LNCaP cells were treated with R1881 (10 nM), R1881 (10 nM)+KCI807 (20 uM), or vehicle for 2h. The cells were fixed and subjected to the chromatin immunoprecipitation (ChIP) assay using antibody to AR. ChIP signals from established sites of AR recruitment by ELK1 (FIG. 2E) or from canonical ARE enhancer sites associated with the KLK3 and TMPRSS2 genes (FIG. 2F) are plotted as percent of input DNA.
The ability of KCI807 to selectively block recruitment of AR by ELK1 to chromatin in situ was tested.

The conditions of data set [2]: male, SCID, mouse, in vivo, ip, 250 mg/kg, 6 h.
A short description of data set [3]: Metabolism in pooled human liver microsomes (HLM) with or without NADPH. It is filed as in vitro ADME. The note with it: HLM 0.05 mg/ml, 30 minutes, 37° C. As for the experimental part: BD UltraPool human liver microsomes (HLM) 150 and the NAPDH regenerating system solution A and B were obtained from Corning Inc. Pooled HLM were used to determine percentage of metabolism of 5,3′-Dihydroxyflavone and 5,3-Dihydroxy-4′-methylflavone. The compounds (20 μM) were co-incubated with HLM (0.05 mg/ml) in the presence or absence of NAPDH for 30 minutes in a 37° C. water bath. At the end of the microsome reaction, the reaction was quenched with 1000 μl ethyl acetate. The mixture was vortexed and centrifuged at 13,000 rpm for 15 minutes, the supernatant was then subjected to high-performance liquid chromatography with tandem mass spectrometry ([…]) analysis.
A general note: Liver microsomes are a subcellular fraction often used to study metabolism.

The next data set concerns ZR-75-1 cells. In words: Breast cancer cell growth, MTT assay. It is filed as cell-based. Here is the method: FIG. 17A is a graph showing the effect on growth of various concentrations of 5,3′-Dihydroxyflavone on breast cancer cell line ZR-75-1 using the MTT assay.
Twenty four hours after plating the cells, they were treated with the indicated concentrations of the compound.
(In general: Tetrazolium dyes change colour on reduction, which living cells bring about.)

The test system of data set [4] is 22Rv1 human CRPC xenograft. In words: 22Rv1 CRPC tumor xenograft in male SCID mice, tumor growth. The note with it: KCI807 IP 250-300 mg/kg every other day; enzalutamide PO 50-60 mg/Kg daily; from day 3.
The target of the next data set is T1, Full length human AR (Homo sapiens, UniProt P10275).
T1 construct: Full length human AR expressed in insect cells; purchased Abcam (Cambridge Mass.) ab82609; host or cells: insect cells
T1 sequence (P10275 1-920): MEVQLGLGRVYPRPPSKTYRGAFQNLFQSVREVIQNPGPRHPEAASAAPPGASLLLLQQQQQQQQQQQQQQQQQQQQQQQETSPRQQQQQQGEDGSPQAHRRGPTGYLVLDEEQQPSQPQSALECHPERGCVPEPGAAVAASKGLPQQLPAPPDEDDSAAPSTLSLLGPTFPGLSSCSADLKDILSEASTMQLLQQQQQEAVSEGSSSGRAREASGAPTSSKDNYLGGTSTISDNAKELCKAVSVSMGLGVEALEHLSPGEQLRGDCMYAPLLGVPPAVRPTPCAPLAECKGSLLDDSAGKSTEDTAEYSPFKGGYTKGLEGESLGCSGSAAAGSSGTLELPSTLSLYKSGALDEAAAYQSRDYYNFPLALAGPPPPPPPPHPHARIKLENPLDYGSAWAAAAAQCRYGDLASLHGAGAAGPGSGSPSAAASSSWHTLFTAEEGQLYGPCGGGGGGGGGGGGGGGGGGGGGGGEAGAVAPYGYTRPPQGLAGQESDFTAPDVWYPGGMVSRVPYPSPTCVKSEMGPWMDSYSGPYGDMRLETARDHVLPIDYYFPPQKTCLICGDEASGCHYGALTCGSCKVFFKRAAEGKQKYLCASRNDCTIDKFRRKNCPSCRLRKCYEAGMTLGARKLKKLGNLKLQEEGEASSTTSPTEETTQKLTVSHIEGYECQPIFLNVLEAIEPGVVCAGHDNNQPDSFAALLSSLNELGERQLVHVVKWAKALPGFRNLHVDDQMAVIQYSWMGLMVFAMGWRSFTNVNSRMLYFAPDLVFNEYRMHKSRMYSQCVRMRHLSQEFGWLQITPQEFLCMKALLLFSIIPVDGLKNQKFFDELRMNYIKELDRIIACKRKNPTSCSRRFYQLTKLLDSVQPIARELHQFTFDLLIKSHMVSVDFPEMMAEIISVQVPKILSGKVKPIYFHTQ
In words: Surface plasmon resonance, compound (analyte) binding to immobilized AR. The note with it: SPR, compound as analyte. Here is the method:
FIG. 2A is a graph showing surface plasmon resonance (SPR) kinetic curves for quantitative analyses of KCI807 binding to AR.
The proteins were eluted with 200 mM imidazole and dialysed against […], pH 7.9 containing 10% glycerol, 20 mM KCl, 2 mM MgCl2, 0.2 mM EDTA, 0.5 mM benzamidine and 0.5 mM DTT.
Amine Coupling Kit, CM5 sensor chip and HBS-N buffer (GE Healthcare) were used for surface plasmon resonance (SPR) analysis. The rate and equilibrium binding constants of the interaction of AR with KCI807 was determined using Biacore 3000 (Biacore, Piscataway, N.J.). […] The immobilization involved activation of carboxymethyl groups on a dextran-coated chip by reaction with N-hydroxysuccinimide, followed by covalent bonding of the ligand (AR) to the chip surface via amide linkages. Reference surfaces were prepared in the same manner but blocked with ethanolamine and thus contained no ligand. […] The interaction (response units, RU) between analyte and ligand was recorded as the ligand RU minus the reference RU. Kinetic values were determined using BIAevaluation software (Biacore), and the data were fitted with the model showing closest match, according to methods described in Drescher DG et al., Methods Mol. Biol., (Clifton, N. J.). […] A 1:1 Langmuir binding model was generally selected, in which all the sensorgrams representing the different analyte concentrations were fitted simultaneously with the wide window of association and dissociation phases. Individual concentration curves were also evaluated to confirm the fitting data. The equilibrium dissociation constant (Kd) was calculated by kd=koff/kon. In all cases, baseline was established in the presence of the vehicle used for the compounds (DMSO) appropriately diluted in BBS-N buffer.
A general note: Surface plasmon resonance follows binding to a sensor surface in real time, without labels.

pKd: −log10 of the molar value. “And” between values parts separate entries of the source, which are not always exact repeats. Identical values can stand only once.

One may read the koff as a measure of how fast the partners let go of each other. Higher therefore signals a short-lived complex. As a reminder, the kon is the rate constant with which the complex forms. What is called pKd is −log10 of the Kd, conventionally taken in molar units. In the case of `O=c1cc(-c2cccc(O)c2)oc2cccc(O)c12` [KCI807, 5,3′-dihydroxyflavone], in data set [1], the “AR association with chromatin sites at which ELK1 recruits AR” value is “prevented association of AR” and the “AR recruitment at canonical ARE enhancer sites (KLK3, TMPRSS2)” value is “did not affect AR recruitment”. In data set [2], the “plasma level of unmetabolized compound (median), Day 11” value came out at 387 nM and the “plasma level of unmetabolized compound (median), Day 19” value turned out to be 70 nM. Moreover, in data set [3], the “compound concentration after HLM incubation, Control (absence of NADPH), replicate” value is 973 nM and 981 nM and 1006 nM; the “compound concentration after HLM incubation, NADPH treated, replicate” value was 796 nM and 725 nM and 863 nM; the “mean compound concentration, Control (absence of NADPH)” value stood at 986 nM; the “mean compound concentration, NADPH treated” value was 795 nM. For the same compound, the “percentage metabolized (%)” value in data set [3] (NADPH) is 19.4%. In addition, in the data set with ZR-75-1 cells, the “growth of ZR-75-1 cells” value is reported as “did not inhibit the growth”. For the same compound, the “tumor growth inhibition, 22Rv1 xenograft” value in data set [4] is reported as “inhibited”. At Full length human AR, this compound had a koff of 0.00254 s⁻¹ and an association rate constant (kon) of 36700 M⁻¹ s⁻¹. Besides, the negative logarithm of the Kd (pKd) on Full length human AR (kd=koff/kon, read-out: kd (dissociation constant)) is 7.16.
